How the values were obtained:
[1] = tested on: A549 cells; assay: Cell viability (MTT) of A549 cells under low serum / serum deprivation; format: cell-based
Description: (A) Karpas 1106, SU-DHL-5, SeAx and HUT-78 cells were plated at a densities of 6×10^3 in 96 well plates (100 μL total volume per well) and treated for 24 hours in a 37° C. incubator (5% CO2) with increasing concentrations of the Antp-AAC-11-LZ (363-399). 20 μL MTS reagent was then added to each well and plates were incubated for an additional 4 hours. Absorbance was measured at 490 nm using a 96-well plate reader. The extent to which the Antp-AAC-11-LZ (363-399) peptide inhibited cell proliferation was calculated as a percentage of the absorbance in each well containing the Antp-AAC-11-LZ (363-399) peptide relative to wells containing no peptide (negative control). Each bar represents the mean±s.d. from at least three independent experiments. (B) Indicated cells were plated at a densities of 4.5×10^3 in 96 well plates (100 μL total volume per well) and allowed to attach overnight in a 37° C. incubator (5% CO2). Media was removed from cells and replaced with media containing Antp-AAC-11-LZ (363-399) peptide at various concentrations (100 μL total volume per well) peptide and the plates were incubated for 24 hours. The MTT assay was then completed and data analysis was performed as described herein. […] A549 cells were plated at a densities of 4.5×10^3 in 96 well plates (100 μL total volume per well) and allowed to attach overnight in a 37° C. incubator (5% CO2). Media was removed from cells and replaced with media containing the indicated peptides at 10 μM (100 μL total volume per well) and the plates were incubated for 24 hours. The MTT assay was then completed and data analysis was performed as described herein.
(A) A549 cells were plated at a densities of 4.5×10^3 in 96 well plates (100 μL total volume per well) and allowed to attach overnight in a 37° C. incubator (5% CO2). Media was removed from cells and replaced with media containing the indicated peptides at various concentrations (100 μL total volume per well) peptide in the absence of serum and the plates were incubated for 24 hours. The MTT assay was then completed and data analysis was performed as described herein. (B) A549 or HaCat cells were plated at a densities of 4.5×10^3 in 96 well plates (100 μL total volume per well) and allowed to attach overnight in a 37° C. incubator (5% CO2). Media was removed from cells and replaced with media containing the indicated peptides at 10 μM (100 μL total volume per well) peptide in the absence of serum and the plates were incubated for 24 hours. The MTT assay was then completed and data analysis was performed as described herein.
A549 cells were plated at a densities of 4.5×10^3 in 96 well plates (100 μL total volume per well) and allowed to attach overnight in a 37° C. incubator (5% CO2). Cells were left untreated or pre-treated with 100 μM Z-VAD-FMK for 2 h. […] The MTT assay was then completed and data analysis was performed as described herein.
(A) A549 cells were plated at a densities of 4.5×10^3 in 96 well plates (100 μL total volume per well) and allowed to attach overnight in a 37° C. incubator (5% CO2). Media was removed from cells and replaced with media containing the indicated Antp-AAC-11-LZ peptides at various concentrations (100 μL total volume per well) peptide and the plates were incubated for 24 hours. The MTT assay was then completed and data analysis was performed as described herein. (B) A549 or HaCat cells were plated at a densities of 4.5×10^3 in 96 well plates (100 μL total volume per well) and allowed to attach overnight in a 37° C. incubator (5% CO2). Media was removed from cells and replaced with media containing the indicated peptides at 10 μM (100 μL total volume per well) peptide in the absence of serum and the plates were incubated for 24 hours. The MTT assay was then completed and data analysis was performed as described herein.

[2] = tested on: human triple-negative breast cancer xenograft PDX01; assay: Triple-negative breast cancer patient-derived xenograft PDX01 in nude mice; format: in vivo; conditions: 2.4 mg/kg i.p., 7 daily injections, p=0.01
Description: (§1) Breast cancer fragments were obtained from patients at the time of surgery, with informed written patient consent. After imaging-guided human tumor biopsies had been performed, fragments of 30 to 60 mm^3 were subcutaneously grafted in 6-week-old NMRI-nude mice (Centre-Elevage-Janvier, France), under xylasin (10 mg/kg)/ketamin (100 mg/kg) anesthesia. Mice were maintained in specific pathogen-free animal housing (Institut Universitaire d'Hematologie) and received estrogen (17 mg/mL) diluted in drinking water. Xenografts were characterized and subsequently subcutaneously transplanted from mouse to mouse. […] Two human triple-negative breast cancer (HBC) xenografts models were used in our experiments (PDX01 and PDX02). […] Following transplantation (n=6 per model) tumor growth was assessed by measuring tumor size in two dimension using a Vernier caliper. Tumor volume was calculated using the formula [3.14×long axis×short axis×short axis]/6 (Kjonniksen et al., 1989). […] Mice were weighted and the tumor size was measured by a caliper and recorded daily. Fourteen days after beginning of the treatment mice were sacrificed. The tumors, kidney, lungs, heart, liver, pancreas and spleen were taken and fixed. Paraffin-embedded sections were prepared and stained with hematoxylin and eosin for histological analysis.

[3] = tested on: human triple-negative breast cancer xenograft PDX02; assay: Triple-negative breast cancer patient-derived xenograft PDX02 in nude mice; format: in vivo; conditions: 2.4 mg/kg i.p., 7 daily injections, p=0.01
Description: as §1

[4] = tested on: U2OS cells; assay: Matrigel invasion assay, U2OS cells; format: cell-based; conditions: 7.5 μM, toward 10% FBS, 48 h, FIG. 10B
Description: (§2) FIG. 10: Antp-AAC-11-LZ (377-399) peptide inhibits cell migration and invasion. (A) U2OS cells were added to the upper well of modified Boyden chamber (transwell) plates in serum-free medium containing 0.4% BSA with a vehicle or with either 7.5 μM of the Antp-AAC-11-LZ (377-399) peptide or the AAC-11-LZ (377-399) peptide and subjected to a transwell migration assay as described under Materials and methods. The cells were allowed to migrate toward 10% FBS for 24 h. Triplicate wells were used for each of three independent experiments. The results are expressed relative to the migration of the untreated cells (=100%). Column: Mean of three experiments. Bar: s.e. P-value was determined by Student's t-test (*P<0.01). (B) U2OS cells were seeded in a Matrigel-coated Boyden chamber in serum-free medium containing 0.4% BSA with a vehicle or with either 7.5 µM of the Antp-AAC-11-LZ (377-399) peptide or the AAC-11-LZ (377-399) peptide and subjected to a transwell migration assay as described under Materials and methods. The cells were allowed to migrate toward 10% FBS for 48 h. Triplicate wells were used for each of three independent experiments. The results are expressed relative to the migration of the untreated cells (=100%). Column: Mean of three experiments. Bar: s.e. P-value was determined by Student's t-test (*P<0.01) […]

[5] = tested on: A549 non-small cell lung cancer xenograft; assay: A549 lung adenocarcinoma subcutaneous xenograft in nude mice; format: in vivo; conditions: 5 mg/kg i.p., 7 daily injections
Description: A549 cells (1.25×10^6) were injected subcutaneously to six weeks old female nu/nu mice. Following transplantation (n=5-6 per model) tumor growth was assessed by measuring tumor size in two dimension using a Vernier caliper. Tumor volume was calculated using the formula [3.14×long axis×short axis×short axis]/6 (Kjonniksen et al., 1989). Treatment started after randomisation when tumor volumes had reached a size of approximately 100 mm^3 and consisted of intraperitoneal injection of AAC-11-LZ (377-399) or Antp-AAC-11-LZ (377-399) peptides (5 mg/kg) or vehicle (normal saline solution) each day for 7 consecutive days. Mice were weighted and the tumor size was measured by a caliper and recorded daily. Twenty eight days after beginning of the treatment mice were sacrificed. The tumors, kidney, lungs, heart, liver, pancreas and spleen were taken and fixed. Paraffin-embedded sections were prepared and stained with hematoxylin and eosin for histological analysis.

[6] = tested on: U2OS cells; assay: Transwell Boyden chamber migration assay, U2OS cells; format: cell-based; conditions: 7.5 μM, serum-free medium with 0.4% BSA, toward 10% FBS, 24 h, FIG. 10A
Description: as §2

[7] = Toxicity of peptide injection in nude mice; conditions: i.p. twice per week for 4 weeks
Description: Nude mice were injected intraperitoneally twice a week for 4 weeks with normal saline solution or the indicated doses of Antp-AAC-11-LZ (363-399) peptide (n=3-4 mice per group) and were monitored daily for body weight (mean±s.e.m).
Nude mice were injected intraperitoneally twice a week for 4 weeks with normal saline solution or the indicated doses of Antp-AAC-11-LZ (377-399) peptide (n=3-4 mice per group) and were monitored daily for body weight (mean±s.e.m).
We first evaluated the toxicity of the Antp-AAC-11-LZ (363-399) peptide in nude mice that were injected intraperitoneally twice per week for 4 weeks with the Antp-AAC-11-LZ (363-399) peptide or normal saline solution (dose range: 0.8-4.8 mg peptide/kg body weight; n=3-4 mice per group).
We first evaluated the toxicity of the Antp-AAC-11-LZ (377-399) peptide in nude mice that were injected intraperitoneally twice per week for 4 weeks with the Antp-AAC-11-LZ (377-399) peptide or normal saline solution (dose range: 1-6 mg peptide/kg body weight; n=3-4 mice per group).

Substance | induction of cell death of A549 cells ([1]; 10 μM, serum deprivation, 24 hours, FIG. 1C) | final mean tumor volume relative to control-treated mice [2] | final mean tumor volume relative to control-treated mice [3] | cell invasion [4] | final mean tumor volume relative to control-treated mice ([5]; p=0.01) | cell migration [6] | cellular viability ([1]; 2 µM) | cytotoxicity (decrease of A549 viability) relative to comparison peptide, dose-response ([1]; various concentrations, low-serum conditions, 24 hours, FIG. 2A / 5A) | tumor size versus AAC-11-LZ (377-399) peptide or vehicle ([5]; FIG. 11B) | mortality ([7]; 1-6 mg peptide/kg body weight) | body weight difference between groups ([7]; 1-6 mg peptide/kg body weight, FIG. 11A) | toxicity to kidney, lungs, heart, liver, pancreas and spleen ([7]; 1-6 mg peptide/kg, end of experiment)
AAC-11-LZ (363-399): AKLNAEKLKDFKIRLQYFARGLQVYIRQLRLALQGKT (SEQ ID NO: 3) (Synthetic AAC-11-LZ (363-399)) | neither the Penetratin peptide alone, the AAC-11-LZ (363-399) peptide without the Penetratin linkage nor the mutant peptide Antp-AAC-11-LZ (363-399) L/G did induce cell death | less than 35% | less than 50% | – | – | – | – | – | – | – | – | –
AAC-11-LZ (377-399): LQYFARGLQVYIRQLRLALQGKT (SEQ ID NO: 16) (Synthetic AAC-11-LZ (377-399)) | – | – | – | didn't show any effect | less than 25% | didn't show any effect | – | – | – | – | – | –
Ac-RQIKIWFKKQNRRMKWKKLQYFARGLQVYIRQLRLALQGKT-NH2 [Antp-AAC-11-LZ (377-399)] | – | – | – | prevented invasion | – | substantially decreased | 5 % of control | markedly increased cytotoxicity potency compared to the parent peptide | significantly smaller tumors | No mice died | no significant difference | no obvious toxicity

— patent US10358469B2, “Methods and pharmaceutical compositions for the treatment of cancer” (INSERM (INSTITUT NATIONAL DE LA SANTÉ ET DE LA RECHERCHE …, priority 2014, dated 2019)
